The results in this text go back to PMC2483479 (Acta Crystallographica Section D: Biological Crystallography, 2007).

The target of one series is T1, E. coli KAS I (Escherichia coli, UniProt P0A953).
T1 sequence (P0A953 1-406): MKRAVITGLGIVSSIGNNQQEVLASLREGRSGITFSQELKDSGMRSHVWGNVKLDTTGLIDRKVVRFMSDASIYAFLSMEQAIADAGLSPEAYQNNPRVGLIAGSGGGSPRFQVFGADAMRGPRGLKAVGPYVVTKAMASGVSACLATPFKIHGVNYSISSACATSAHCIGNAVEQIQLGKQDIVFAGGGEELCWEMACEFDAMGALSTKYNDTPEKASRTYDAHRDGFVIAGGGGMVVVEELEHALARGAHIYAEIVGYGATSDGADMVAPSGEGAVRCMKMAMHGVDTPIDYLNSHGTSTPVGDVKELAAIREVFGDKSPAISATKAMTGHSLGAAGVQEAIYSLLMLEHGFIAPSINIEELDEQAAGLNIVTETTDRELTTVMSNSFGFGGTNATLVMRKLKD
Nature of the series: X-ray crystal structure. Conditions: 0.3 mM thiolactomycin, 2.3 M ammonium sulfate, 0.1 M Tris-HCl pH 7.5, 3% DMSO; active site. The class given is binding.

The series “crystal structure” deals with the molecule itself. Description: crystal structure.

Consider `C=C/C(C)=C/[C@@]1(C)SC(=O)C(C)=C1O` [thiolactomycin], for which, on E. coli KAS I, the “X-ray crystal structure (crystal soaking)” value is recorded as “clearly confirmed binding of thiolactomycin at the active site”.

B1: Escherichia coli β-ketoacyl-ACP synthase I (KAS I) (enzyme)
chain: T1 sequence (P0A953 1-406)
Regarding B1, the binding result in the series “crystal structure” is recorded as “binds”.
